In patent publication EP2140864A2 (H. Lundbeck A/S, priority 2001, dated 2002):
Read-outs that look alike come from different tables or passages of the source.

Molecular target: T1, human GAL3 receptor (Homo sapiens, UniProt O60755)
T1 construct: expressed in transfected cells
T1 sequence (O60755 1-368): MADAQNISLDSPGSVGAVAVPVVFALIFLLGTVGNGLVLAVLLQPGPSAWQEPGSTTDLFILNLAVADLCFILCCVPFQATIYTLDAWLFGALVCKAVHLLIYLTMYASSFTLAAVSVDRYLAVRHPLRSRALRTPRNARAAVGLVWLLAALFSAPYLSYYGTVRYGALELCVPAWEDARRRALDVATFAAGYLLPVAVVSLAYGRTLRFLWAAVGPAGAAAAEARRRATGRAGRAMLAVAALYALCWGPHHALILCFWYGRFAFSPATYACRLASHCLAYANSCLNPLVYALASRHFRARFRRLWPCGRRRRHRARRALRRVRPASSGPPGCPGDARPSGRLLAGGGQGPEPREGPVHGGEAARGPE
Assay: Radioligand binding at cloned human GAL3 receptor
Details: cloned human receptor, read-out: Ki GalR3
How it was run: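 Compound vehicle, as final assay concentration, was 3% DMSO (indolones) or 1% ethanol/0.09% polypuronic acid F-127 (pyrimidines). Binding measured on fresh or frozen membranes of stably transfected LM(tk-) mouse fibroblasts carrying cloned human GAL3, in pH 7.4 HEPES buffer; values derived by nonlinear regression.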

Compound `O=C1/C(=N\c2ccc(Cl)c(Cl)c2)c2ccccc2N1Cc1cccnc1` [Example 311] has a Ki (indolones) of 32 nM.

With `COc1ccc(OC)c(Nc2cc(N(C)C)nc(N3CCN(Cc4ccccc4)CC3)n2)c1` [Example 227] the Ki (pyrimidines) was 600 nM.

Compound `O=C1/C(=N\c2ccc(F)c(F)c2)c2ccccc2N1Cc1cccnc1` [Example 276] has a Ki (indolones) of 192 nM.

For `CN(C)c1cc(Nc2ccc(Br)c(C(F)(F)F)c2)nc(N2CCN(c3ccccn3)CC2)n1` [Example 133], the Ki (pyrimidines) was 60 nM.

In the case of `O=C1/C(=N\c2ccc(I)cc2)c2ccccc2N1c1ccsc1` [Example 262, (3Z)-3-[(4-IODOPHENYL)IMINO]-1-(3-THIENYL)-1,3-DIHYDRO-2H-INDOL-2-ONE], the Ki (indolones) is reported as 46 nM.

`Cc1ccc(Nc2cc(N3CCCCC3)nc(N(C)CCc3c[nH]c4ccccc34)n2)cc1Cl` [Example 16] was tested, and the Ki (pyrimidines) was 33 nM.

`FC(F)(F)c1cccnc1N1CCN(c2nc(NC3CCCCC3)cc(N3CCCCC3)n2)CC1` [Example 35] was tested, and the Ki (pyrimidines) was 111 nM.

In the case of `Cc1ccc(Nc2cc(N3CCCCC3)nc(N3CCN(Cc4ccccc4)CC3)n2)cc1` [Example 23], the Ki (pyrimidines) is reported as 60 nM.

In the case of `Cc1ccc(Nc2cc(N(C)C)nc(NCCCc3ccccc3)n2)cc1` [Example 162], the Ki (pyrimidines) is reported as 42 nM.

`CN(C)c1cc(Nc2cc(Cl)ccc2Cl)nc(N2CCN(c3ccccn3)CC2)n1` [Example 208] showed a Ki (pyrimidines) of 120 nM.

Compound `O=C1/C(=N\c2cccc(C(F)(F)F)c2)c2ccccc2N1Cc1ccccn1` [Example 273] has a Ki (indolones) of 202 nM.

`CCCCCCc1ccc(Nc2cc(N(C)C)nc(N3CCN(c4ccccn4)CC3)n2)cc1` [Example 187] was tested, and the Ki (pyrimidines) was 19 nM.

`CN(C)c1cc(NC2C3CC4CC(C3)CC2C4)nc(N2CCN(Cc3ccccc3)CC2)n1` (centres unmarked) [Example 168] gave a Ki (pyrimidines) of 50 nM.

`CN(C)c1cc(Nc2ccc(OCc3ccccc3)cc2)nc(N2CCN(c3ccccn3)CC2)n1` [Example 117] gave a Ki (pyrimidines) of 61 nM.
